What was measured:
Format in all cases: functional
[1] = tested on: SK-MEL-28; experiment: Cytotoxicity against Homo sapiens (human) SK-MEL-28 cells assessed as cell growth at 10 uM after 48 hr by SRB assay relative to control; conditions: SK-MEL-28, 48 h, read-out: Activity
[2] = tested on: M14; experiment: Cytotoxicity against Homo sapiens (human) M14 cells after 48 hr by SRB assay; conditions: M14, 48 h
[3] = tested on: SF-268; experiment: Cytotoxicity against Homo sapiens (human) SF268 cells after 48 hr by SRB assay; conditions: SF-268, 48 h
[4] = tested on: UO-31; experiment: Cytotoxicity against Homo sapiens (human) UO31 cells after 48 hr by SRB assay; conditions: UO-31, 48 h
[5] = tested on: SF-539; experiment: Cytotoxicity against Homo sapiens (human) SF539 cells after 48 hr by SRB assay; conditions: SF-539, 48 h
[6] = tested on: SF-295; experiment: Cytotoxicity against Homo sapiens (human) SF295 cells after 48 hr by SRB assay; conditions: SF-295, 48 h
[7] = tested on: A549; experiment: Cytotoxicity against Homo sapiens (human) A549 cells after 48 hr by SRB assay; conditions: A549, 48 h
[8] = read-out: pLC50 (the source's name) (converted)

Row | SMILES | growth at 10 µM [1] [%] | GI50 [2] [µM] | CC50 [2, 8] [µM] | TGI ([2]; read-out: pTGI (converted)) [µM] | GI50 [3] [µM] | CC50 [3, 8] [µM] | TGI ([3]; read-out: pTGI (converted)) [µM] | GI50 [4] [µM] | LC50 [4] [µM] | TGI ([4]; read-out: pTGI) [µM] | GI50 [5] [µM] | CC50 [5, 8] [µM] | TGI ([5]; read-out: pTGI) [µM] | GI50 [6] [µM] | CC50 [6, 8] [µM] | TGI ([6]; read-out: pTGI (converted)) [µM] | GI50 [7] [µM] | CC50 [7, 8] [µM] | TGI ([7]; read-out: pTGI) [µM]
1 | COc1ccc(-c2nn3c(SCC(=O)Nc4ccccc4Cl)nc4ccccc4c3nc2=O)cc1 | -5.98 | 2.63 | > 100 | 100 | 2.95 | 72.4 | 13.8 | – | – | – | – | – | – | – | – | – | – | – | –
2 | COc1ccccc1CNC(=O)CSc1nc2ccccc2c2nc(=O)c(-c3ccccc3)nn12 | – | – | – | – | – | – | – | 1.86 | > 100 | > 100 | 1.82 | > 100 | > 100 | 2.45 | > 100 | 8.51 | 2.34 | > 100 | > 100
